Each structure is given as a SMILES string. Calls of active or inactive are those of the source. No cut-off for these calls is given here.

Consider 29 compounds from ChEMBL document CHEMBL1136848, “Parallel medicinal chemistry approaches to selective HDAC1/HDAC2 inhibitor (SHI-1:2) optimization” (Bioorg Med Chem Lett, 2009).

The test system of data set [1] is HCT-116. The data set can be described thus: Antiproliferative activity against human HCT116 cells expressing HDAC after 72 hrs. It counts as functional, cell-based. Conditions: HCT-116, 72 h.
A further data set deals with Histone deacetylase 1 (Homo sapiens, UniProt Q13547). Kind of data set: Inhibition of C-terminal FLAG-tagged human HDAC1 overexpressed in mammalian cells by plate reader method. It counts as cell-based.
The target of the next data set is Histone deacetylase 3 (Homo sapiens, UniProt O15379). Kind of data set: Inhibition of C-terminal FLAG-tagged human HDAC3 overexpressed in mammalian cells by plate reader method. It is filed as cell-based.
For data set [2], the system named is HCT-116. Kind of data set: Antiproliferative activity against human HCT116 cells expressing HDAC after 96 hrs. It counts as functional, cell-based. To be noted: for IC50: HCT-116, 96 h.
For data set [3], the target named is T1, Voltage-gated inwardly rectifying potassium channel KCNH2 (Homo sapiens, UniProt Q12809).
A short description of data set [4]: Inhibition of calcium ion channel at < 10 uM.
Data set [5] is described as follows: Increase in acetylated H2B/Total H2B ratio in acute in-vivo HCT116 xenograft model at 25 mg/kg, ip. It is filed as functional. Conditions: route intraperitoneal.
Data set [6] is described as follows: Half life in rat at 2 mg/kg, iv. It counts as ADME, organism-based. Details: dose 2 mg/kg, route intravenous. To be noted: in vivo.
A short description of data set [7]: Oral bioavailability in dog at 1 mg/kg, po. To be noted: in vivo. It counts as ADME, organism-based, Canis lupus familiaris.
Data set [8] can be described thus: Volume of distribution at steady state in rat at 2 mg/kg, iv. Conditions: in vivo, read-out: Vdss. It is filed as ADME, organism-based. Further details: dose 2 mg/kg, route intravenous.
Data set [9] is described as follows: Half life in dog at 0.5 mg/kg, iv. It is filed as ADME, organism-based, Canis lupus familiaris. Further details: dose 0.5 mg/kg, route intravenous. To be noted: in vivo.
The nature of data set [10]: Volume of distribution at steady state in dog at 0.5 mg/kg, iv. It counts as ADME, organism-based, Canis lupus familiaris. Details: dose 0.5 mg/kg, route intravenous. To be noted: in vivo, read-out: Vdss.
A short description of data set [11]: Clearance in dog at 0.5 mg/kg, iv. It is filed as ADME, organism-based, Canis lupus familiaris. Further details: dose 0.5 mg/kg, route intravenous. Conditions: in vivo.
The nature of data set [12]: Clearance in rat at 2 mg/kg, iv. It is filed as ADME, organism-based. Further details: dose 2 mg/kg, route intravenous. To be noted: in vivo.
Data set [13] is described as follows: Oral bioavailability in rat at 4 mg/kg. It is filed as ADME, organism-based. Conditions: in vivo.
Data set [14] deals with T1, Voltage-gated inwardly rectifying potassium channel KCNH2. The data set can be described thus: Inhibition of human ERG at < 10 uM.
Data set [15] is described as follows: Bioavailability in rat plasma. It counts as ADME, organism-based.
The nature of data set [16]: Volume of distribution in rat plasma. It counts as ADME, organism-based.
Data set [17] is described as follows: Half life in rat plasma. It is filed as ADME, organism-based.
Data set [18] in a line: Clearance in rat plasma. It is filed as ADME, organism-based.
A further data set is filed under the species Homo sapiens. The data set can be described thus: Selectivity ratio of IC50 for C-terminal FLAG-tagged human HDAC3 to IC50 C-terminal FLAG-tagged human HDAC1.

Sequence of Histone deacetylase 3 (O15379 whole entry): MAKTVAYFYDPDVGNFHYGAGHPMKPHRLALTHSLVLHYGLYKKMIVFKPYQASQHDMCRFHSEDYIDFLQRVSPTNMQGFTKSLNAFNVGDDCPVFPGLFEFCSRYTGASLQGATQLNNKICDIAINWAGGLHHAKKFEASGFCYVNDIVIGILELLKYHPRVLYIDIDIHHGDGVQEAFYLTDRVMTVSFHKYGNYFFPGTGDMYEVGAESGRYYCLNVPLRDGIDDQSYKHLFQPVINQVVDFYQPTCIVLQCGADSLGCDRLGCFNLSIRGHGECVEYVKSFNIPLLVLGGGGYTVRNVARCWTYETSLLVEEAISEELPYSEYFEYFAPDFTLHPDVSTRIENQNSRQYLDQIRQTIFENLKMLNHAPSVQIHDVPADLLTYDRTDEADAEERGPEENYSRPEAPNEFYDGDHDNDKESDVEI
Sequence of Histone deacetylase 1 (Q13547 whole entry): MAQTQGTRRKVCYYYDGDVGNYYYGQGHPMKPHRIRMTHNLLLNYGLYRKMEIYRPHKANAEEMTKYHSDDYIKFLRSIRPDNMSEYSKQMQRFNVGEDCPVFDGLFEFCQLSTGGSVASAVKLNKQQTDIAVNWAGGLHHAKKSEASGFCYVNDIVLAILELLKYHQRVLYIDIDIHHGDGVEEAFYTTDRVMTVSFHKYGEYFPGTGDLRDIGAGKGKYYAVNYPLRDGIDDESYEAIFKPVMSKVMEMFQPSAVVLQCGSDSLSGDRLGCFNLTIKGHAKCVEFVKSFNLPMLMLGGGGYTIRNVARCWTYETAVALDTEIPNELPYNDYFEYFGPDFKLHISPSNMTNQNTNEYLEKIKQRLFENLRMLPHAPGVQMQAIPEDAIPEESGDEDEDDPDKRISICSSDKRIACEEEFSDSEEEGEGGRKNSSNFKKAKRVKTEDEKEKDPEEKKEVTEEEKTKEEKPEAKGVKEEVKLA
T1 sequence (Q12809 whole entry): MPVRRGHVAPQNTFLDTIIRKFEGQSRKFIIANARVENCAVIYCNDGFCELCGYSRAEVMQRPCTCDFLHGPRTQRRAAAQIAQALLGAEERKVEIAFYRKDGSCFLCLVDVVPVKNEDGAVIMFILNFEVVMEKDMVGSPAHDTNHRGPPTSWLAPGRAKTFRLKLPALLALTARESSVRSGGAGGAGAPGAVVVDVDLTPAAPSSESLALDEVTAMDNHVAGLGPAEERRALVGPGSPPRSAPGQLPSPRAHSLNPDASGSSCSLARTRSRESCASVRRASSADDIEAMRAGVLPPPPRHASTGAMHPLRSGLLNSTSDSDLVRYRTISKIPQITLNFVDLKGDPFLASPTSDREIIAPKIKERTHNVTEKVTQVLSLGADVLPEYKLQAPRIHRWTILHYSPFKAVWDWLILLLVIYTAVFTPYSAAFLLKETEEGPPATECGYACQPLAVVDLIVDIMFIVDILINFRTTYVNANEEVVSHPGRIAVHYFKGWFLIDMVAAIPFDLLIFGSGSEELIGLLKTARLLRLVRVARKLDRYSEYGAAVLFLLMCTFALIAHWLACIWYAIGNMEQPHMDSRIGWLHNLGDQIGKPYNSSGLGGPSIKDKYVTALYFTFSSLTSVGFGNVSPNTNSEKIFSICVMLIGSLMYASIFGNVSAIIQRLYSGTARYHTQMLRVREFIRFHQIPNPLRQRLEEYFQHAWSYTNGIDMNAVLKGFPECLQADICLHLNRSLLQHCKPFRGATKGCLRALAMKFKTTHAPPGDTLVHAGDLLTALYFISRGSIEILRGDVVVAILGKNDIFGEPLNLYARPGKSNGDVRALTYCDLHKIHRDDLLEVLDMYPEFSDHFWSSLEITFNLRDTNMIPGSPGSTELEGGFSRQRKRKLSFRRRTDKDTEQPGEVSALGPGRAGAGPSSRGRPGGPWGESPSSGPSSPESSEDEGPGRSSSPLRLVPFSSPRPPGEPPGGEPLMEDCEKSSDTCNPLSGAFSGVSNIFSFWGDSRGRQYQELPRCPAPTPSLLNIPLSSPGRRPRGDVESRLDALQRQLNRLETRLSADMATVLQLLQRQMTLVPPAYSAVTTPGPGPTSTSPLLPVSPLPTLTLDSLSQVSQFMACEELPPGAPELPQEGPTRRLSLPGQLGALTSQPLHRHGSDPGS

In the case of `Nc1ccc(-c2ccccc2)cc1NC(=O)c1ccc(CN2CCC3(CCNC3)CC2)cc1`, the results for the IC50 in the data set on HCT-116 [1], against Histone deacetylase 1 and at Histone deacetylase 3 were 309 nM, 33 nM and 6930 nM, respectively.
For `Nc1ccc(-c2ccccc2F)cc1NC(=O)c1ccc(C(=O)N2CCC3(CCCN3)CC2)cc1` the same measures were 290 nM, 11 nM and above 50000 nM.
Regarding `Nc1ccc(-c2cccc(F)c2)cc1NC(=O)c1ccc(CN2CCC3(CCCN3)CC2)cc1`, the IC50 with HCT-116 [1] is 1070 nM; on Histone deacetylase 1, 47 nM; on Histone deacetylase 3 it was 5730 nM.
On to `CN(Cc1ccc(C(=O)Nc2cc(-c3ccccc3)ccc2N)cc1)c1ccncc1`, for which the half-maximal inhibitory concentration (IC50) in the data set on HCT-116 [1] was determined as 3610 nM; against Histone deacetylase 3 it was 5380 nM.
`O=C(Nc1cc(-c2ccccc2)ccc1O)c1ccc(CNCc2cccnc2)cc1`: it took 1360 nM to reach half-maximal inhibition with HCT-116 [2] (IC50).
Turning to `Nc1ccc(-c2ccccc2F)cc1NC(=O)c1ccc(CN2CCC3(CCCN3)CC2)cc1`, the IC50 in the data set with HCT-116 [1] was 470 nM; on Histone deacetylase 1, 16 nM; in data set [3], 183 nM; against Histone deacetylase 3, 17400 nM.
For the compound `COc1cccc(CNCc2ccc(C(=O)NO)cc2)c1`, on Histone deacetylase 1, 477 nM corresponded to half-maximal inhibition (IC50).
Take `Nc1ccc(-c2ccccc2)cc1NC(=O)c1ccc(C(=O)N2CCC3(CCCN3)CC2)cc1`: the half-maximal inhibitory concentration (IC50) is 103 nM with HCT-116 [1], 8 nM against Histone deacetylase 1, 12400 nM in data set [3] and 5100 nM against Histone deacetylase 3. The outcome in data set [4] was inactive. Moreover, in data set [5], the “fold change (FC)” value was 3. Also, the half-life in [6] is 7 h; in data set [9] it was 8.5 h. The bioavailability in data set [7] stood at 4%; in [13], 17%. Moreover, the Vd came to 14 L/kg in data set [8] and 5.1 L/kg in [10]. The clearance in [11] was 8.2 mL/min/kg; in data set [12] it was 26 mL/min/kg. For the same compound, the Activity result in data set [14] was “Not Active”.
In the case of `O=C(Nc1cc(-c2ccccc2)ccc1O)c1ccc(CNc2ccncc2)cc1`, inhibition with HCT-116 [2] was half-maximal at 1740 nM (IC50).
`O=C(NO)c1ccc(CNC2CCCCC2)cc1` yielded a half-maximal inhibitory concentration (IC50) against Histone deacetylase 1 of 24100 nM.
As to `O=C(Nc1cc(Cl)ccc1O)c1ccc(CNc2ccncc2)cc1`, the result in the data set on HCT-116 [2] was inactive. For the same compound, inhibition at Histone deacetylase 1 was half-maximal at 5030 nM (IC50).
For `O=C(Nc1ccccc1O)c1ccc(CNc2ccncc2)cc1` the same measures were “inactive” and 1570 nM.
For `COc1ccc(O)c(NC(=O)c2ccc(CNc3ccncc3)cc2)c1` the same measures were “inactive” and 7960 nM.
For `Nc1ccc(-c2ccc(F)cc2)cc1NC(=O)c1ccc(CN2CCC3(CCNC3)CC2)cc1`, the IC50 in the data set with HCT-116 [1] was 276 nM; at Histone deacetylase 1, 13 nM; in data set [3], 237 nM; on Histone deacetylase 3, 4800 nM.
For `Nc1ccc(-c2cccs2)cc1NC(=O)c1ccc(C(=O)N2CCC3(CCCN3)CC2)cc1`, the IC50 in the data set with HCT-116 [1] amounted to 70 nM; at Histone deacetylase 1, 11 nM; in data set [3], 25100 nM; at Histone deacetylase 3, 4330 nM.
On to `O=C(Nc1cc(-c2ccccc2)ccc1O)c1ccc(CNCCc2ccccc2)cc1`, for which the result in the data set with HCT-116 [2] was inactive.
Turning to `CC(NCc1ccc(C(=O)Nc2cc(-c3ccccc3)ccc2O)cc1)c1ccncc1` (stereo unspecified), the 50% inhibitory concentration (IC50) is 1820 nM with HCT-116 [2] and 13 nM on Histone deacetylase 1.
With `O=C(Nc1cc(F)ccc1O)c1ccc(CNc2ccncc2)cc1`, the outcome with HCT-116 [2] was inactive. The same compound came in with an IC50 against Histone deacetylase 1 of 2010 nM.
For the compound `Nc1ccc(-c2ccsc2)cc1NC(=O)c1ccc(CN2CCC3(CCCN3)CC2)cc1`, the IC50 in the data set with HCT-116 [1] is 73 nM; on Histone deacetylase 1 it was 8 nM; at Histone deacetylase 3 it was 8710 nM.
Compound `O=C(NO)c1ccc(CNCc2cccc(Cl)c2)cc1` returned an IC50 against Histone deacetylase 1 of 348 nM.
Same read-out and setting: the result for `O=C(NO)c1ccc(CNCCc2cccc(Cl)c2)cc1` reads 1010 nM.
On to `Cc1ccc(O)c(NC(=O)c2ccc(CNc3ccncc3)cc2)c1`, for which, in the data set on HCT-116 [2], the result was inactive. Half-maximal inhibition at Histone deacetylase 1 (IC50) required 20600 nM.
For `CC(C)CNCc1ccc(C(=O)Nc2cc(-c3ccccc3)ccc2O)cc1`, the outcome with HCT-116 [2] was inactive.
For the compound `Nc1ccc(-c2cccs2)cc1NC(=O)c1ccc(CN2CCC3(CCCN3)CC2)cc1`, the concentration for half-maximal inhibition (IC50) in the data set on HCT-116 [1] came to 82 nM; at Histone deacetylase 1, 4 nM; in [3] it was 1600 nM; against Histone deacetylase 3 it was 9620 nM.
Take `Nc1ccc(-c2ccc(F)cc2)cc1NC(=O)c1ccc(C(=O)N2CCC3(CCCN3)CC2)cc1`: the IC50 with HCT-116 [1] was found to be 138 nM; against Histone deacetylase 1, 12 nM; at Histone deacetylase 3 it was 3200 nM.
For `O=C(Nc1cc(Br)ccc1O)c1ccc(CNc2ccncc2)cc1`, the outcome with HCT-116 [2] was inactive. In addition, on Histone deacetylase 1, 5220 nM corresponded to half-maximal inhibition (IC50).
Consider `Nc1ccc(-c2ccccc2)cc1NC(=O)c1ccc(CNc2ccncc2)cc1`, for which the IC50 stood at 1740 nM in the data set on HCT-116 [1] and 6390 nM at Histone deacetylase 3.
For `Nc1ccc(-c2ccccc2)cc1NC(=O)c1ccc(CN2CCC3(CCCN3)CC2)cc1`, the figures for the 50% inhibitory concentration (IC50) in the data set with HCT-116 [1], against Histone deacetylase 1 and at Histone deacetylase 3 were 118 nM, 8 nM and 16500 nM, respectively. The compound also showed a bioavailability in data set [15] of 70%. This compound also had a Vd in data set [16] of 22 L/kg. This compound showed a half-life in [17] of 8 h. In [18], this compound gave a clearance of 45 mL/min/kg. In addition, in the data set listed under Homo sapiens, the Ratio IC50 came to 2000.
As for `O=C(NO)c1ccc(CNc2ccc(Cl)cc2)cc1`, the IC50 on Histone deacetylase 1 is 1620 nM.

A word on the IC50: it is the concentration at which inhibition is half-maximal. Lower therefore signals greater potency. In general, half-life refers to how long it takes for the measured level to halve. Broadly, the bioavailability is dose-corrected exposure relative to a reference, in per cent. Lower therefore signals poor availability. The clearance is a measure of how efficiently the substance is removed, as volume per time. A lower clearance goes with inefficient removal.
